Data taken from US20210106703A1, “RADIOIMMUNOCONJUGATES IN COMBINATION WITH OTHER DRUGS AS TREATMENT AGAINST NHL” (Nordic Nanovector ASA, priority 2017, published 2021).
Where two headings read alike, the source gives them in different places.

B1: Lutetium-177 [^177Lu]-lilotomab satetraxetan (conjugate, chains of the INN, looked up)
VH: EIQLQQSGPELVKPGASVKVSCKASGYSFTDYNMYWVKQSHGKSLEWIGYIDPYNGDTTYNQKFKGKATLTVDKSSSTAFIHLNSLTSEDSAVYYCARSPYGHYAMDYWGQGTSVTVSS
VL: DIVMTQSHKLLSTSVGDRVSITCKASQDVSTAVDWYQQKPGQSPKLLINWASTRHTGVPDRFTGSGSGTDYTLTISSMQAEDLALYYCRQHYSTPFTFGSGTKLEIK
modifications: 177Lu satetraxetan chelator conjugate

Assays:
Type in all cases: cell-based, human
RIVA cells = experiment: Real Time Glo viability assay, Betalutin and cell cycle inhibitors (Example 2); settings: RIVA; for viability at 0.1 µM / viability at 1 µM: Homo sapiens, read-out: Growth inhibition (signal treated/control; 1 = no change)
Procedure: Cells were split twice a week 1:3-1:5 depending on cell density. […] Real Time Glo was purchased from Promega. 384 well plates were purchased from Greiner Bio-One.
Cells were treated for 18-20 h with Betalutin at a final concentration of 1 μg/ml and 2 μg/ml in 6-well cell culture plates with shaking. After treatment, PBS was added to the cells, and the cells pelleted. Cells were first resuspended in 1 ml PBS, then washed twice in PBS and finally diluted in growth medium at the desired concentration. All cell lines were treated at a cell concentration of 2.5*10^6 cells/ml.
Regardless of cell number the culturing volume was 25 μl. For Real Time Glo, the Cell Viability Substrate and NanoLuc® Enzyme were diluted 1:500 in growth medium, and 25 μL of diluted reagents added to each well. All reagents were equilibrated to 37° C. Cells were incubated with the reaction mix for 1 h at 37° C. before the first measurement of luminescence. Measurements were repeated as often as required within 72 h after adding the reagents. Digitonin was added to cells at 200 μg/ml to record background luminescence of dead cells. A Tecan SPARK 10M plate reader was used to measure luminescence, with an integration time set to 1 sec.
Growth inhibition was calculated by dividing the luminescence signal of the treated cells by the luminescence signal of the control cells for each day of measurement after start of treatment [Table 1].
To evaluate effects of the drugs alone [(−)Betalutin] and their combination with Betalutin [(+)Betalutin], we calculated the Z-score for each sample (ZdrugX=1-(+)BetalutindrugX/(−)BetalutindrugX), where (+)BetalutindrugX and (−) BetalutindrugX are the measured luminescence intensity values for drug X in presence and absence of Betalutin, respectively. The calculation of Z-score values separately for each plate enabled comparison of results across plates, despite variations between the plates in overall signal intensity.

DOHH2 cells = experiment: Cell cycle analysis (PI, Muse flow cytometer)
Procedure: (§1) Cells were harvested at day 0, 2 h, 18 h, 1 d, 2 d, 3 d, of RIT then fixed in 70% ethanol at −20° C. for 3 hours and stained with Cell Cycle kit (with PI) reagent from Merck Millipore in the dark for 30 min at room temperature before analysis using a Muse® flow cytometer. The percentage of cells in G0/G1, S and G2/M phases was then calculated (mean of three experiments in triplicate).
(§2) At different times after start of incubation, proteins were extracted to measure the CDK1 phosphorylation levels, in parallel, proliferation was determined and at 18 h and 24 h after start of incubation, the percentage of cells in G2/M was assessed (experiments were performed three time except the cell cycle analysis).
(§3) Cells were harvested at 0 h, 2 h, 18 h, 1 d, 2 d, 3 d, and fixed in 70% ethanol at −20° C. for at least 3 h. After staining with the Muse® Cell Cycle Assay Kit (Merck Millipore, Molsheim, France) using propidium iodide in the dark at room temperature for 30 min, cell cycle distribution was analyzed using a Muse® flow cytometer. The percentage of cells in the G0/G1, S and G2/M was calculated (mean of three experiments in triplicate) and the effect of WEE-1 and MYT-1 kinase inhibitors on the cell cycle was assessed.

Ramos cells = experiment: Cell cycle analysis (PI, Muse flow cytometer)
Procedure: as §1, §2, §3

Rec-1 cells = experiment: Cell cycle analysis (PI, Muse flow cytometer)
Procedure: as §1, §2, §3

Molecule | viability at 0.1 µM (RIVA cells; drug 100 nM, +Betalutin, Dy3) | viability at 0.1 µM (RIVA cells; drug 100 nM, +Betalutin, Dy4) | viability at 0.1 µM (RIVA cells; drug 100 nM, +Betalutin, Dy5) | viability at 0.1 µM (RIVA cells; drug 100 nM, +Betalutin, Dy6) | viability at 0.1 µM (RIVA cells; drug 100 nM, −Betalutin, Dy3) | viability at 0.1 µM (RIVA cells; drug 100 nM, −Betalutin, Dy4) | viability at 0.1 µM (RIVA cells; drug 100 nM, −Betalutin, Dy5) | viability at 0.1 µM (RIVA cells; drug 100 nM, −Betalutin, Dy6) | viability at 1 µM (RIVA cells; drug 1 μM, +Betalutin, Dy3) | viability at 1 µM (RIVA cells; drug 1 μM, +Betalutin, Dy4) | viability at 1 µM (RIVA cells; drug 1 μM, +Betalutin, Dy5) | viability at 1 µM (RIVA cells; drug 1 μM, +Betalutin, Dy6) | viability at 1 µM (RIVA cells; drug 1 μM, −Betalutin, Dy3) | viability at 1 µM (RIVA cells; drug 1 μM, −Betalutin, Dy4) | viability at 1 µM (RIVA cells; drug 1 μM, −Betalutin, Dy5) | viability at 1 µM (RIVA cells; drug 1 μM, −Betalutin, Dy6) | other results
Nc1nc(Nc2ccc(S(N)(=O)=O)cc2)nn1C(=O)c1c(F)cccc1F [JNJ-7706621] | 13% | 8% | 4% | 4% | 89% | 82% | 99% | 89% | 29% | 13% | 4% | 3% | 50% | 31% | 17% | 14% | Synergy for the combination with Betalutin (RIVA cells; drug 100 nM): Bliss + Z-score; Synergy for the combination with Betalutin (RIVA cells; drug 1 μM): Z-score
C=CCn1c(=O)c2cnc(Nc3ccc(N4CCN(C)CC4)cc3)nc2n1-c1cccc(C(C)(C)O)n1 [MK-1775] | 49% | 38% | 24% | 23% | 100% | 89% | 94% | 94% | 2% | 1% | 1% | 1% | 8% | 4% | 2% | 1% | Proportion of cells in G2/M, inhibitor combined with ^177Lu-lilotomab (DOHH2 cells; DOHH2, 1 μM inhibitor + ^177Lu-lilotomab, versus ^177Lu-lilotomab alone or untreated): reduction of the fraction of G2/M cells; Proportion of cells in G2/M, inhibitor combined with ^177Lu-lilotomab (Ramos cells; 1 μM inhibitor + ^177Lu-lilotomab, versus ^177Lu-lilotomab alone or untreated): reduction of the fraction of G2/M cells; Proportion of cells in G2/M, inhibitor combined with ^177Lu-lilotomab (Rec-1 cells; Rec-1, 1 μM inhibitor + ^177Lu-lilotomab, versus ^177Lu-lilotomab alone or untreated): reduction of the fraction of G2/M cells
B1 |  |  |  |  |  |  |  |  |  |  |  |  |  |  |  |  | Proportion of cells showing a G2/M cell cycle arrest (DOHH2 cells; DOHH2, 6 MBq/mL, at 24 h): 45±11%; Proportion of cells showing a G2/M cell cycle arrest (Ramos cells; 6 MBq/mL, at 24 h): 64±16%; Proportion of cells showing a G2/M cell cycle arrest (Rec-1 cells; Rec-1, 6 MBq/mL, at 24 h): 44±11%
